The values below come from patent US8507538B2, “Selective heterocyclic sphingosine 1 phosphate receptor modulators” (Receptos, Inc., priority 2009, dated 2013).

Where only a bound is given, the exact number is not on record here.

For the test, the target named is S1P1/EDG1 (Homo sapiens, UniProt P21453). The test can be described thus: S1P1 CRE-bla CHOK1 reporter assay (inhibition of Forskolin induced cAMP). Format: cell-based. The conditions noted are these: agonist activity range, Table 2; read-out: S1P1 ACTIVITY
S1P1/EDG1, sequence (P21453 whole entry): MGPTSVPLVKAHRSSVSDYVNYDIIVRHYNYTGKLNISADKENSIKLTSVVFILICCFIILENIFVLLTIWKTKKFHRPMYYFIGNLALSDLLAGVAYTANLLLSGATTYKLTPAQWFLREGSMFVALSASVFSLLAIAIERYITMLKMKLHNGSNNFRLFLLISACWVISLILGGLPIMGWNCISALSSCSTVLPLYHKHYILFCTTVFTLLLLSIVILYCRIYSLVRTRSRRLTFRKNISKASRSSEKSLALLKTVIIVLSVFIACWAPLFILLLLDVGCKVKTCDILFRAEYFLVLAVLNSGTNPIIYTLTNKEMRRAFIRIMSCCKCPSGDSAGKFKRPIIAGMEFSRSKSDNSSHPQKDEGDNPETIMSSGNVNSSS
The source says:
A mammalian expression plasmid containing S1P1/EDG1 cloned into pcDNA3.1 was purchased from Missouri S&T cDNA Resource Centre. The nucleotide and amino acid sequence of human S1P1/EDG1 are published in Hla and Maciag (J Biol Chem, 265(1990), 9308-9313). S1P1/pcDNA3.1 was transfected into the CRE-bla CHO K1 (Invitrogen) cell line, and stable single cell clones were selected using standard techniques. Expression of functional SIP1/EDG1 receptor was confirmed by cell surface FACS with a S1P1 antibody (R&D Systems, clone 218713) and S1P-mediated inhibition of Forskolin induced cAMP.
Cells were seeded into 384-well black wall/clear bottom plates at 10^4 cells/well/19.5 μl assay media (DMEM-phenol free, 0.5% charcoal/dextran stripped serum, 2 mM glutamine, 0.1 mM NEAA, 1 mM Na-Pyruvate, 25 mM Hepes) and incubated for 18 hrs at 37° C. in 5% CO2. Dose response curves (10-point) were generated in 10 mM Hepes, 0.1% Pluronic F127, in the presence of Forskolin. Cells were treated with 0.5 μl compound in the presence of 2 μM Forskolin for 4 hrs at 37° C. The FRET-based β-lactamase fluorescent substrate (LiveBLAzer™ FRET B/G Loading Kit CC4-AM; Invitrogen) was prepared according to manufacturer's directions, and incubated with cells for 2 hrs at room temperature. Plates were read at Ex:410/Em:458 and Ex:410/Em:522, and the response ratio determined. Data was analyzed by non-linear regression to determine the EC50 for inhibition of Forskolin induced cAMP.
For orientation: A reporter such as luciferase makes a cellular process visible.
In the case of `CC(C)Oc1ccc(-c2ncc(-c3cccc4c3CC[C@@H]4NC(=O)N3CCNCC3)s2)cc1C#N` [Compound 188], the EC50 is 0.5 to 5 nM.

Take `CC(C)Oc1ccc(-c2nnc(-c3cccc4c3CC[C@@H]4O)s2)cc1C#N` [Compound 1, (S)-5-(5-(1-hydroxy-2,3-dihydro-1H-inden-4-yl)-1,3,4-thiadiazol-2-yl)-2-isopropoxybenzonitrile]: the EC50 lay in the range of 0.05 to 0.5 nM.

With `CC(C)Oc1ccc(-c2ncc(-c3cccc4c3CC[C@@H]4NC(=O)N3CC[C@H](N(C)C)C3)s2)cc1C#N` [Compound 182], the EC50 was 0.5 to 5 nM.

For the molecule `CC(C)Oc1ccc(-c2nnc(-c3cccc4c3CCC4NC(=O)N3CC[C@H](N(C)C)C3)s2)cc1C#N` (stereo in doubt) [Compound 57, (S)-N-((R)-4-(5-(3-cyano-4-isopropoxyphenyl)-1,3,4-thiadiazol-2-yl)-2,3-dihydro-1H-inden-1-yl)-3-(dimethylamino)pyrrolidine-1-carboxamide], the EC50 was 0.5 to 5 nM.

As for `CC(C)Oc1ccc(-c2nnc(-c3cccc4c3CC[C@H]4NC(=O)N(C)C)s2)cc1C#N` [Compound 66], the EC50 is 0.05 to 0.5 nM.

Consider `CC(C)Oc1ccc(-c2nnc(-c3cccc4c3CC[C@H]4NC(=O)N3CCCC3)s2)cc1C#N` [Compound 52], for which the EC50 lay within 0.05 to 0.5 nM.

As for `CC(C)Oc1ccc(-c2ncc(-c3cccc4c3CCC4NC3CCCCC3)s2)cc1C#N` (stereo not shown) [Compound 218], the EC50 is > 5 nM.

`CC(C)Oc1ccc(-c2nnc(-c3cccc4c3CCC4NCCO)s2)cc1C#N` (stereo in doubt) [Compound 17, (R)-5-(5-(1-((2-hydroxyethyl)amino)-2,3-dihydro-1H-inden-4-yl)-1,3,4-thiadiazol-2-yl)-2-isopropoxybenzonitrile]: the EC50 was 0.05 to 0.5 nM.

Consider `CC(C)Oc1ccc(-c2ncc(-c3cccc4c3CC[C@@H]4NC(=O)CN3CCCC3)s2)cc1C#N` [Compound 85], for which the EC50 is > 5 nM.

In the case of `CC(C)Oc1ccc(-c2ncc(-c3cccc4c3CC[C@@H]4NS(=O)(=O)CCO)s2)cc1C#N` [Compound 165, (S)-N-(4-(2-(3-cyano-4-isopropoxyphenyl)thiazol-5-yl)-2,3-dihydro-1H-inden-1-yl)-2-hydroxyethanesulfonamide], the EC50 lay in the range of 0.5 to 5 nM.

Consider `COCCN(CCOC)[C@H]1CCc2c(-c3nnc(-c4ccc(OC(C)C)c(C#N)c4)s3)cccc21` [Compound 30], for which the EC50 was 0.5 to 5 nM.

Turning to `CC(C)Oc1ccc(-c2ncc(-c3cccc4c3CCC4NCCS(C)(=O)=O)s2)cc1C#N` (stereo in doubt) [Compound 220, (R)-2-isopropoxy-5-(5-(1-((2-(methylsulfonyl)ethyl)amino)-2,3-dihydro-1H-inden-4-yl)thiazol-2-yl)benzonitrile], the EC50 lay in the range of 0.05 to 0.5 nM.

On to `CC(C)Oc1ccc(-c2ncc(-c3cccc4c3CC[C@@H]4NS(C)(=O)=O)s2)cc1C#N` [Compound 112, (S)-N-(4-(2-(3-cyano-4-isopropoxyphenyl)thiazol-5-yl)-2,3-dihydro-1H-inden-1-yl)methanesulfonamide], for which the EC50 fell in the range of 0.05 to 0.5 nM.

Consider `CC(C)Oc1ccc(-c2nnc(-c3cccc4c3CC[C@@H]4NCCO)s2)cc1C#N` [Compound 18, (S)-5-(5-(1-((2-hydroxyethyl)amino)-2,3 dihydro-1H-inden-4-yl)-1,3,4-thiadiazol-2-yl)-2-isopropoxy-benzonitrile], for which the EC50 was 0.5 to 5 nM.

For `CC(C)Oc1ccc(-c2ncc(-c3cccc4c3CC[C@@H]4NCc3ncc[nH]3)s2)cc1C#N` [Compound 110, (S)-5-(5-(1-(((1H-imidazol-2-yl)methyl)amino)-2,3-dihydro-1H-inden-4-yl)thiazol-2-yl)-2-isopropoxybenzonitrile], the EC50 lay in the range of 0.5 to 5 nM.

For the molecule `CC(C)Oc1ccc(-c2ncc(-c3cccc4c3CC[C@@H]4NC(=O)N3CC[C@H](N)C3)s2)cc1C#N` [Compound 180], the EC50 is > 5 nM.

With `CNS(=O)(=O)CCNC1CCc2c(-c3cnc(-c4ccc(OC(C)C)c(C#N)c4)s3)cccc21` (stereo not shown) [Compound 219], the EC50 lay in the range of 0.05 to 0.5 nM.

As to `CC(C)Oc1ccc(-c2nnc(-c3cccc4c3CC[C@@H]4NC(=O)N3CC[C@H](O)C3)s2)cc1C#N` [Compound 54], the EC50 fell in the range of 0.05 to 0.5 nM.

On to `CC(C)Oc1ccc(-c2ncc(-c3cccc4c3CC[C@@H]4NS(=O)(=O)CCN3CCC[C@H](O)C3)s2)cc1C#N` [Compound 144], for which the EC50 fell in the range of 0.5 to 5 nM.

Take `CC(C)Oc1ccc(-c2ncc(-c3cccc4c3CC[C@@H]4NC(=O)[C@H](N)CO)s2)cc1C#N` [Compound 79]: the EC50 lay in the range of 0.05 to 0.5 nM.

On to `CC(C)Oc1ccc(-c2nnc(-c3cccc4c3CC[C@@H]4NC(=O)N3CCC(O)CC3)s2)cc1C#N` [Compound 62], for which the EC50 was in the range of 0.5 to 5 nM.

`CC(C)Oc1ccc(-c2ncc(-c3cccc4c3CC[C@@H]4NC(=O)N3CCC(CO)CC3)s2)cc1C#N` [Compound 194]: the EC50 is 0.5 to 5 nM.

On to `COC(=O)CN[C@H]1CCc2c(-c3cnc(-c4ccc(OC(C)C)c(C#N)c4)s3)cccc21` [Compound 99, (S)-methyl 2-((4-(2-(3-cyano-4-isopropoxyphenyl)thiazol-5-yl)-2,3-dihydro-1H-inden-1-yl)amino)acetate], for which the EC50 lay in the range of 0.5 to 5 nM.

`COCC(=O)N[C@H]1CCc2c(-c3cnc(-c4ccc(OC(C)C)c(C#N)c4)s3)cccc21` [Compound 75]: the EC50 lay within 0.05 to 0.5 nM.

For the molecule `CC(C)Oc1ccc(-c2ncc(-c3cccc4c3CC[C@@H]4NC(=O)N3CC(O)C3)s2)cc1C#N` [Compound 171], the EC50 was in the range of 0.05 to 0.5 nM.

As for `CC(C)Oc1ccc(-c2nnc(-c3cccc4c3CC[C@H]4NC(=O)CO)s2)cc1C#N` [Compound 8, (R)-N-(4-(5-(3-cyano-4-isopropoxyphenyl)-1,3,4-thiadiazol-2-yl)-2,3-dihydro-1H-inden-1-yl)-2-hydroxyacetamide], the EC50 lay in the range of 0.05 to 0.5 nM.

Regarding `CC(C)Oc1ccc(-c2ncc(-c3cccc4c3CC[C@@H]4NS(=O)(=O)CCN3CCC(CC(=O)O)CC3)s2)cc1C#N` [Compound 148], the EC50 lay within 0.5 to 5 nM.

On to `CC(C)Oc1ccc(-c2ncc(-c3cccc4c3CC[C@@H]4NS(=O)(=O)CCN3CCC3)s2)cc1C#N` [Compound 127], for which the EC50 lay within 0.5 to 5 nM.

`CC(C)Oc1ccc(-c2ncc(-c3cccc4c3CC[C@@H]4NC(=O)N3CCC(N(C)C)CC3)s2)cc1C#N` [Compound 192]: the EC50 is > 5 nM.

For `CC(C)Oc1ccc(-c2ncc(-c3cccc4c3CC[C@@H]4NS(=O)(=O)CCN(C)C)s2)cc1C#N` [Compound 123], the EC50 lay in the range of 0.5 to 5 nM.

For `COCC(=O)N[C@H]1CCc2c(-c3nnc(-c4ccc(OC(C)C)c(C#N)c4)s3)cccc21` [Compound 12], the EC50 lay in the range of 0.5 to 5 nM.

As for `CC(C)Oc1ccc(-c2nnc(-c3cccc4c3CCC4NS(C)(=O)=O)s2)cc1C#N` (stereo in doubt) [Compound 34, (R)-N-(4-(5-(3-cyano-4-isopropoxyphenyl)-1,3,4-thiadiazol-2-yl)-2,3-dihydro-1H-inden-1-yl)methanesulfonamide], the EC50 was 0.05 to 0.5 nM.

As to `CC(C)Oc1ccc(-c2nnc(-c3cccc4c3CC[C@@H]4NCC(=O)O)s2)cc1C#N` [Compound 26, (S)-2-((4-(5-(3-cyano-4-isopropoxyphenyl)-1,3,4-thiadiazol-2-yl)-2,3-dihydro-1H-inden-1-yl)amino)acetic acid], the EC50 fell in the range of 0.05 to 0.5 nM.

Regarding `CC(C)Oc1ccc(-c2ncc(-c3cccc4c3CC[C@@H]4NCC(=O)N3CC[C@H](O)C3)s2)cc1C#N` [Compound 105], the EC50 is > 5 nM.

For `CC(C)Oc1ccc(-c2ncc(-c3cccc4c3CC[C@@H]4NC(=O)N3CCC[C@H](O)C3)s2)cc1C#N` [Compound 199], the EC50 was 0.05 to 0.5 nM.

Take `CC(C)Oc1ccc(-c2nnc(-c3cccc4c3CC[C@@H]4NC(=O)N3CC(O)C3)s2)cc1C#N` [Compound 64]: the EC50 is 0.5 to 5 nM.

Take `CC(C)Oc1ccc(-c2ncc(-c3cccc4c3CC[C@@H]4NS(=O)(=O)CC(=O)O)s2)cc1C#N` [Compound 159, (S)-2-(N-(4-(2-(3-cyano-4-isopropoxyphenyl)thiazol-5-yl)-2,3-dihydro-1H-inden-1-yl)sulfamoyl)acetic acid]: the EC50 was 0.05 to 0.5 nM.

On to `CC(C)Oc1ccc(-c2nnc(-c3cccc4c3CCC4O)s2)cc1C#N` (stereo in doubt) [Compound 2, (R)-5-(5-(1-hydroxy-2,3-dihydro-1H-inden-4-yl) -1,3,4-thiadiazol-2-yl)-2-isopropoxybenzonitrile], for which the EC50 fell in the range of 0.05 to 0.5 nM.

For the molecule `CC(C)Oc1ccc(-c2ncc(-c3cccc4c3CC[C@@H]4NCCO)s2)cc1C#N` [Compound 92, (S)-5-(5-(1-((2-hydroxyethyl)amino)-2,3-dihydro-1H-inden-4-yl)thiazol-2-yl)-2-isopropoxybenzonitrile], the EC50 fell in the range of 0.5 to 5 nM.

On to `CC(C)Oc1ccc(-c2ncc(-c3cccc4c3CC[C@@H]4NS(=O)(=O)CC(=O)N3CC(O)C3)s2)cc1C#N` [Compound 163], for which the EC50 was in the range of 0.05 to 0.5 nM.

Turning to `CC(C)Oc1ccc(-c2ncc(-c3cccc4c3CC[C@@H]4NS(=O)(=O)CCC(=O)O)s2)cc1C#N` [Compound 160], the EC50 is < 0.05 nM.

For `COC(=O)N[C@H]1CCc2c(-c3cnc(-c4ccc(OC(C)C)c(C#N)c4)s3)cccc21` [Compound 89], the EC50 fell in the range of 0.5 to 5 nM.

Turning to `CC(C)Oc1ccc(-c2ncc(-c3cccc4c3CC[C@@H]4NC(=O)N3CC[C@H](N(C)C)C3)s2)cc1C#N` [Compound 184], the EC50 is > 5 nM.
